Key:
Assay type in all cases: cell-based, human
Akt2 = experiment: Western blot of Akt2 target P-GSK-3β S9; conditions: 2.5 μM perifosine for 4 hours
Experimental: (§1) Control (untreated) as well as cells treated with perifosine, chetomin or DMOG were lysed using a Triton X-100 based lysis buffer (1% Triton X-100, 10% glycerol, 150 mM NaCl, 20 mM Tris (pH 7.5), 2 mM EDTA) in the presence of protease inhibitors (Thermo Fisher Scientific). Approximately 40 μg of whole cell extract was resuspended in SDS sample buffer, boiled for 4 minutes, and analyzed by SDS-PAGE (12% or 15% gels), then transferred onto PVDF membranes (Genesee) using a semi-dry cell transfer blot (Bio-Rad). Nonfat dry milk (4%) or 5% BSA (for Akt2 and phospho-specific antibodies) in TBST buffer (25 mM Tris-HCl, pH 8.0, 125 mM NaCl, 0.1% Tween 20) were used to block nonspecific binding of the membrane. The membranes were incubated with the indicated primary antibodies: HIF-1α (Bioss Antibodies, 1:2,000), AKT (pan), Akt1, Akt2, Akt3, phospho-Akt-T308, phospho-GSK-3β-S9, ULK1 (Cell Signaling Technology 1:2,000), GLUT1, (ABclonal 1:2,000), MFN2, and β-actin (Santa Cruz Biotechnology, 1:3,000). MUL1 and UBXN7 rabbit polyclonal antibodies were homegrown and used at 1:5,000 dilution. Secondary peroxidase-conjugated goat anti-rabbit or goat anti-mouse antibodies (Jackson ImmunoResearch) were used at 1:10,000 dilution. The membrane was visualized by enhanced chemiluminescence (ECL) (Thermo Fisher Scientific).

HEK293 MUL1(−/−) cells [1] = experiment: Glycolytic Stress Test (ECAR, Seahorse XFe24); conditions: 2.5 μM perifosine or 500 nM chetomin for 4 hours
Experimental: (§2) To monitor glycolysis in the cell lines, the Glycolysis Stress Test was performed using a XFe24 Extracellular Flux Analyzer (Agilent Technologies). HEK293 WT, MUL1(−/−) and Akt2(−/−) cells were seeded in triplicates on poly-lysine D-coated XFe24 microplates at a density of 60,000 cells per well in assay medium (XF DMEM pH 7.4 containing 2 mM glutamine and 1 mM sodium pyruvate without glucose) for one hour in a CO2-free incubator. Extracellular acidification rate (ECAR) was measured under basal conditions and again after sequential injections of glucose (10 mM) in port A, ATP synthase inhibitor oligomycin (1.5 μM) in port B, and the glycolysis inhibitor 2-deoxyglucose (2-DG) (300 mM) in port C. Basal glycolysis was assessed by recording three measurements, following the addition of each compound by a 3-2-3 mix/measurement cycle. Glycolysis is the ECAR after the addition of glucose. Glycolytic capacity is the increase in ECAR after the injection of oligomycin following glucose. Glycolytic reserve is the difference between glycolytic capacity and glycolysis. Data analysis was performed using Report Generators software for Glycolysis Stress Test (Agilent Technologies).

HEK293 MUL1(−/−) cells [2] = experiment: Mitochondrial Stress Test (OCR, Seahorse XFe24); conditions: for oxygen consumption rate (OCR): HEK293 MUL1(−/−) cells, 2.5 μM perifosine or 500 nM chetomin for 4 hours; for mitochondrial respiration: at the concentration used (2.5 μM perifosine, 500 nM chetomin, 4 hours)
Experimental: Mitochondrial stress assay was performed using an XFe24 Extracellular Flux Analyzer (Agilent Technologies) following the workflow provided by the manufacturer's instructions. Briefly, for Oxygen Consumption Rate (OCR) measurements, HEK293 WT and MUL1(−/−) cells were seeded in triplicates on poly-lysine D-coated XF24 microplates at a density of approximately 60,000 cells per well in assay medium (XF DMEM medium pH 7.4 supplemented with 10 mM glucose, 2 mM glutamine, and 1 mM pyruvate), followed by incubation at 37° C. in CO2-free incubator for 60 minutes. Three baseline measurements were recorded before the injection of the following compounds: 1.5 μM of oligomycin in port A, 1.0 μM of FCCP in port B and 0.5 μM rotenone/antimycin in port C. Data analysis was performed using Cell Mito Stress Test Report Generators software (Agilent Technologies).

HEK293 Akt2(−/−) cells [3] = experiment: Glycolytic Stress Test (ECAR, Seahorse XFe24); conditions: DMOG 100 μM for 4 hours
Experimental: as §2

HEK293 WT cells = experiment: Glycolytic Stress Test (ECAR, Seahorse XFe24); conditions: DMOG 100 μM for 4 hours
Experimental: as §2

HEK293 Akt2(−/−) cells [4] = experiment: 13C-NMR isotopomer metabolic flux analysis ([U-13C]glucose, tcaCALC)
Experimental: For NMR analysis, approximately 20×10^6 HEK293 WT, MUL1(−/−), or Akt2(−/−) cells were grown to confluency following treatment with perifosine, or chetomin inhibitors as well as with the HIF-1α activator DMOG and DMSO was used as vehicle control. Freshly prepared [U-^13C]glucose tracer containing medium (glucose free DMEM with 10% dialyzed FBS and 15 mM [U-^13C]glucose) was added to the cells for 6 hours at 37° C. Cells were scraped from the plates, washed twice with cold PBS, and immediately snap frozen in liquid nitrogen (161).
Cell pellets were bead-homogenized in 1 ml acetonitrile:isopropanol:water (3:3:2, v:v:v), centrifuged at 10,000×g for 15 min at 4° C. and the supernatant removed and dried in a speedvac. Dried cell extracts of each sample were re-suspended in 0.5 ml of acetonitrile: water (1:1, v:v) solution, vortexed, and centrifuged for 15 min at 10,000×g at 4° C. The supernatant was transferred to a new tube and dried in a speedvac The dried extract of each cell pellet was re-suspended in phosphate buffer (prepared in Deuterium oxide (D2O)) for NMR analysis. […]
^1H-NMR spectra were collected on an 800 MHz NMR, equipped with a 5 mm TXI CryoProbe and Avance III console (Bruker Biospin), using TopSpin software (version 3.6.3). […] The conventional ^1H-decoupled ^13C-NMR spectra were acquired for each sample at 150.13 MHz, using a ^13C-optimized 1.5 mm high temperature superconducting (HTS) probe on an Agilent NMR system with the magnetic field strength of 14 tesla. ^13C-NMR spectra were recorded using an acquisition time (AQ) of 1.5 sec, relaxation delay (dl) of 1.5 sec, flip angle of 45°, acquired size (TD) of 54 k with the spectral width of 250 ppm (Ramaswamy et al., 2013). […]
The positional ^13C-isotopomer distribution pattern of glutamate was determined by ^13C-NMR. ^13C-NMR resonances of various isotopomers of glutamate are identified from the ^13C-^13C J-coupling constants and quantified by line fitting to the glutamate resonances at C2, C3, C4, and C5 positions. […]

HIF-1α = experiment: Western blot of HIF-1α target protein GLUT1; conditions: 500 nM chetomin for 4 hours
Experimental: as §1

Row | Akt2 kinase activity (P-GSK-3β S9) (Akt2) | SMILES | ECAR and glycolysis (glycolytic function) (HEK293 MUL1(−/−) cells [1]) | oxygen consumption rate (OCR) (HEK293 MUL1(−/−) cells [2]) | mitochondrial respiration (HEK293 MUL1(−/−) cells [2]) | glycolysis and glycolytic capacity (HEK293 Akt2(−/−) cells [3]) | glycolysis and glycolytic capacity (HEK293 WT cells) | YPC flux (HEK293 Akt2(−/−) cells [4]; Akt2(−/−)+DMOG cells compared with HEK293 WT and MUL1(−/−) cells) | PK flux (HEK293 Akt2(−/−) cells [4]; Akt2(−/−)+DMOG cells compared with HEK293 WT cells) | PK, YPC, and YS fluxes (HEK293 Akt2(−/−) cells [4]; Akt2(−/−)+DMOG vs Akt2(−/−) cells, relative to citrate synthase flux of 1) | expression of GLUT1 (HIF-1α)
1 | inhibits | CCCCCCCCCCCCCCCCCCOP(=O)([O-])OC1CC[N+](C)(C)CC1 [perifosine] | reduced ECAR and glycolysis to a level lower than the one present in HEK293 WT cells | further reduced | potent inhibitors of mitochondrial respiration |  |  |  |  |  | 
2 |  | COC(=O)CNC(=O)C(=O)OC [DMOG, dimethyloxalyglycine] |  |  |  | small but significant increase | unremarkable | elevated above WT, but fell short of reaching MUL1(−/−) levels | partially restored with DMOG, but did not reach the WT levels | significantly increased | 
3 |  | CN1C(=O)[C@]2(Cc3cn([C@]45C[C@@]67SS[C@@](CO)(C(=O)N6[C@H]4Nc4ccccc45)N(C)C7=O)c4ccccc34)SS[C@@]1(CO)C(=O)N2C [chetomin] | very potent inhibitor of the mitochondrial glycolytic function | further reduced | potent inhibitors of mitochondrial respiration |  |  |  |  |  | significantly reduces

Reference: US20240117357A1, “REGULATION OF METABOLISM AND OBESITY BY MITOCHONDRIAL MUL1 E3 UBIQUITIN LIGASE” (University of Central Florida Research Foundation, Inc., priority 2022, published 2024)
